According to US9593110B2, “Neprilysin inhibitors” (Theravence Biopharma R&D IP, LLC, priority 2014, dated 2017):

Molecular target: human NEP (Homo sapiens (Human), UniProt P08473)
Assay: In vitro enzyme inhibition assay at human NEP
Settings: recombinant human NEP, fluorogenic peptide substrate, 37° C.; for Ki: pKi
Experimental: The inhibitory activities of compounds at human and rat neprilysin (EC 3.4.24.11; NEP) and human angiotensin converting enzyme (ACE) were determined using in vitro assays as described below.
The assays were performed in 384-well white opaque plates at 37° C. using the fluorogenic peptide substrates at a concentration of 10 μM in Assay Buffer (NEP: 50 mM HEPES, pH 7.5, 100 mM NaCl, 0.01% polyethylene glycol sorbitan monolaurate (Tween-20), 10 μM ZnSO4; ACE: 50 mM HEPES, pH 7.5, 100 mM NaCl, 0.01% Tween-20, 1 μM ZnSO4).
Test compounds were assayed over the range of concentrations from 10 μM to 20 pM. Test compounds were added to the enzymes and incubated for 30 minute at 37° C. prior to initiating the reaction by the addition of substrate.
Plates were read on a fluorometer with excitation and emission wavelengths set to 320 nm and 405 nm, respectively Inhibition constants were obtained by nonlinear regression of the data using the equation (GraphPad Software, Inc., San Diego, Calif.): v=v0/[1+(I/K′)] where v is the reaction rate, v0 is the uninhibited reaction rate, I is the inhibitor concentration and K′ is the apparent inhibition constant.

human NEP, sequence (P08473 52-750): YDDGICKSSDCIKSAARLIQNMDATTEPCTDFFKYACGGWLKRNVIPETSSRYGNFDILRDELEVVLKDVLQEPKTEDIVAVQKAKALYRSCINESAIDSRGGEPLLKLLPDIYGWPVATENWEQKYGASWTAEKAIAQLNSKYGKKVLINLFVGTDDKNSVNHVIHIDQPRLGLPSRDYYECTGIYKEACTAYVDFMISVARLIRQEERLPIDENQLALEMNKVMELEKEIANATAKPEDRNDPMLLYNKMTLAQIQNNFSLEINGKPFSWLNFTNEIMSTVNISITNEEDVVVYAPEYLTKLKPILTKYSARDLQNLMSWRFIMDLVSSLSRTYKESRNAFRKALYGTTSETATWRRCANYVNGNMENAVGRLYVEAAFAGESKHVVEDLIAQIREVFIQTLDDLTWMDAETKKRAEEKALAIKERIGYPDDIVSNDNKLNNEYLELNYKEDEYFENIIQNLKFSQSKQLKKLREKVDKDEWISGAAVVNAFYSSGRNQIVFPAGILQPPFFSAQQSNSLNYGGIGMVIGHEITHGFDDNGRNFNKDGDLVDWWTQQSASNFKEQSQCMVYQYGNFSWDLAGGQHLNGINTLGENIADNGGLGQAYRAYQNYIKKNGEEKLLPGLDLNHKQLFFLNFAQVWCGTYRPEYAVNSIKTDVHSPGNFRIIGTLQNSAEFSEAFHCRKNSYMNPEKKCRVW

Row | SMILES | pKi | Ki
1 | N[C@H](C[C@@H](Cc1ccc(-c2cc(Cl)ccc2F)cc1)NC(=O)c1nn(-c2ccccc2)c(=O)[nH]1)C(=O)O [Example 16-35, (2R,4R)-2-Amino-5-(5′-chloro-2′-fluorobiphenyl-4-yl)-4-[(5-oxo-1-phenyl-4,5-dihydro-1H-[1,2,4]triazole-3-carbonyl)amino]p entanoic acid] | ≧9.0 | –
2 | O=C(N[C@H](Cc1ccc(-c2cc(Cl)ccc2F)cc1)C[C@@H](CN1CC(O)C1)C(=O)O)c1cnn[nH]1 [Example 83b, (2S,4S)-5-(5′-Chloro-2′-fluorobiphenyl-4-yl)-2-(3-hydroxyazetidin-1-ylmethyl)-4-[(3H-[1,2,3]triazole-4-carbonyl)amino]pentanoic Acid] | – | ≤ 1 nM
3 | CC(C)c1coc(C(=O)N[C@H](Cc2ccc(-c3cc(Cl)ccc3F)cc2)C[C@@H](NC(=O)[C@H](N)C(C)C)C(=O)O)n1 [Example 38-1, (2R,4R)-2-((R)-2-Amino-3-methylbutyrylamino)-5-(5′-chloro-2′-fluorobiphenyl-4-yl)-4-[(4-isopropyloxazole-2-carbonyl)amino]pentanoic Acid] | – | 3.16 to 10 nM
4 | Cc1n[nH]c(C(=O)N[C@H](Cc2ccc(-c3cc(Cl)ccc3F)cc2)C[C@@H](N)C(=O)O)c1F [Example 16-20, (2R,4R)-2-Amino-5-(5′-chloro-2′-fluorobiphenyl-4-yl)-4-[(4-fluoro-5-methyl-2H-pyrazole-3-carbonyl)amino]pentanoic acid] | – | 1.26 to 3.16 nM
5 | CC(C)c1coc(C(=O)N[C@H](Cc2ccc(-c3cc(Cl)ccc3F)cc2)C[C@@H](NC(=O)CN)C(=O)O)n1 [Example 34-1, (2R,4R)-2-(2-Aminoacetylamino)-5-(5′-chloro-2′-fluorobiphenyl-4-yl)-4-[(4-isopropyloxazole-2-carbonyl)amino]pentanoic acid] | – | 1.26 to 3.16 nM
6 | CCOC[C@H](C[C@@H](Cc1ccc(-c2cccc(Cl)c2)cc1)NC(=O)c1cc(O)no1)C(=O)O [Example 8, (2S,4S)-5-(3′-Chlorobiphenyl-4-yl)-2-ethoxymethyl-4-[(3-hydroxyisoxazole-5-carbonyl)amino]pentanoic Acid] | – | ≤ 1 nM
7 | O=C(N[C@H](Cc1ccc(-c2cc(Cl)ccc2F)cc1)C[C@@H](NC(=O)[C@@H]1CCCN1)C(=O)O)c1cnn[nH]1 [Example 55, (2R,4R)-5-(5′-Chloro-2′-fluorobiphenyl-4-yl)-2-[((S)-pyrrolidine-2-carbonyl)amino]-4-[(3H-[1,2,3]triazole-4-carbonyl)amino]pentanoic Acid] | – | 3.16 to 10 nM
8 | CC(C)c1coc(C(=O)N[C@H](Cc2ccc(-c3cc(Cl)ccc3F)cc2)C[C@@H](NC(=O)[C@@H](N)C(C)C)C(=O)O)n1 [Example 38-2, (2R,4R)-2-((S)-2-Amino-3-methylbutyrylamino)-5-(5′-chloro-2′-fluorobiphenyl-4-yl)-4-[(4-isopropyloxazole-2-carbonyl)-amino]pentanoic Acid] | – | 1.26 to 3.16 nM
9 | COC(=O)N[C@H](C(=O)N[C@H](C[C@@H](Cc1ccc(-c2cc(Cl)ccc2F)cc1)NC(=O)c1c[nH]nn1)C(=O)O)C(C)C [Example 46, (2R,4R)-5-(5′-Chloro-2′-fluorobiphenyl-4-yl)-2-((S)-2-methoxycarbonylamino-3-methylbutyrylamino)-4-[(1H-[1,2,3]triazole-4-carbonyl)amino]pentanoic Acid] | – | 1.26 to 3.16 nM
10 | NC(=O)C1CN(C[C@H](C[C@@H](Cc2ccc(-c3cc(Cl)ccc3F)cc2)NC(=O)c2cnn[nH]2)C(=O)O)C1 [Example 96b, (2S,4S)-2-(3-Carbamoylazetidin-1-ylmethyl)-5-(5′-chloro-2′-fluorobiphenyl-4-yl)-4-[(3H-[1,2,3]triazole-4-carbonyl)amino]pentanoic Acid] | ≧9.0 | –
11 | N[C@H](C[C@@H](Cc1ccc(-c2cc(Cl)ccc2F)cc1)NC(=O)c1ccc(Cl)cn1)C(=O)O [Example 16-7, (2R,4R)-2-Amino-5-(5′-chloro-2′-fluorobiphenyl-4-yl)-4-[(5-chloropyridine-2-carbonyl)-amino]pentanoic acid] | – | 3.16 to 10 nM
12 | CCC(=O)N[C@H](C[C@@H](Cc1ccc(-c2ccccc2)cc1)NC(=O)c1c[nH]nn1)C(=O)O [Example 27, (2R,4R)-5-Biphenyl-4-yl-2-propionylamino-4-[(1H-[1,2,3]triazole-4-carbonyl)amino]pentanoic Acid] | – | 3.16 to 10 nM
13 | COC[C@H](C[C@@H](Cc1ccc(-c2cc(Cl)ccc2F)cc1)NC(=O)c1ccc(C(F)(F)F)cn1)C(=O)O [Example 2-14, (2S,4S)-5-(5′-Chloro-2′-fluorobiphenyl-4-yl)-2-methoxymethyl-4-[(5-trifluoromethylpyridine-2-carbonyl)amino]pentanoic acid] | ≧9.0 | –
14 | Cc1cnc(C(=O)N[C@H](Cc2ccc(-c3cc(Cl)ccc3F)cc2)C[C@@H](CNC(=O)CN)C(=O)O)o1 [Example 43, (2S,4S)-2-[(2-Aminoacetylamino)methyl]-5-(5′-chloro-2′-fluorobiphenyl-4-yl)-4-[(5-methyloxazole-2-carbonyl)amino]pentanoic Acid] | – | ≤ 1 nM
15 | N[C@H](C[C@@H](Cc1ccc(-c2cc(Cl)ccc2F)cc1)NC(=O)c1ccns1)C(=O)O [Example 16-8, (2R,4R)-2-Amino-5-(5′-chloro-2′-fluorobiphenyl-4-yl)-4-[(isothiazole-5-carbonyl)amino]-pentanoic acid] | – | 3.16 to 10 nM
16 | CCOC[C@H](C[C@@H](Cc1ccc(-c2cccc(Cl)c2)cc1)NC(=O)c1noc(=O)[nH]1)C(=O)O [Example 9-5, (2S,4S)-5-(3′-Chlorobiphenyl-4-yl)-2-ethoxymethyl-4-[(5-oxo-4,5-dihydro-[1,2,4]oxadiazole-3-carbonyl)amino]pentanoic acid] | ≧9.0 | –
17 | O=C(N[C@H](Cc1ccc(-c2cc(Cl)ccc2F)cc1)C[C@@H](CNCCF)C(=O)O)c1cnn[nH]1 [Example 81, (2S,4S)-5-(5′-Chloro-2′-fluorobiphenyl-4-yl)-2-[(2-fluoroethylamino)methyl]-4-[(3H-[1,2,3]triazole-4-carbonyl)amino]pentanoic Acid] | – | 3.16 to 10 nM
18 | CNCC(=O)N[C@H](C[C@@H](Cc1ccc(-c2cc(Cl)ccc2F)cc1)NC(=O)c1cnn[nH]1)C(=O)O [Example 65, (2R,4R)-5-(5′-Chloro-2′-fluorobiphenyl-4-yl)-2-(2-methylaminoacetylamino)-4-[(3H-[1,2,3]triazole-4-carbonyl)amino]pentanoic Acid] | – | 1.26 to 3.16 nM
19 | N[C@@H](C[C@@H](Cc1ccc(-c2cc(Cl)ccc2F)cc1Cl)NC(=O)c1cc(C2CC2)on1)C(=O)O [Example 18-10, (2S,4R)-2-Amino-4-[(5-cyclopropyl-isoxazole-3-carbonyl)-amino]-5-(3,5′-dichloro-2′-fluorobiphenyl-4-yl)pentanoic acid] | ≧9.0 | –
20 | Cc1cnc(C(=O)N[C@H](Cc2ccc(-c3cc(Cl)ccc3F)cc2)C[C@@H](CCN)C(=O)O)o1 [Example 23, (2R,4S)-2-(2-Aminoethyl)-5-(5′-chloro-2′-fluorobiphenyl-4-yl)-4-[(5-methyloxazole-2-carbonyl)amino]pentanoic Acid] | – | 1.26 to 3.16 nM
21 | Cc1cc(C(=O)N[C@H](Cc2ccc(-c3cc(Cl)ccc3F)cc2)C[C@@H](CN)C(=O)O)sn1 [Example 21-6, (2S,4S)-2-Aminomethyl-5-(5′-chloro-2′-fluorobiphenyl-4-yl)-4-[(3-methylisothiazole-5-carbonyl)amino]pentanoic acid] | – | 1.26 to 3.16 nM
22 | O=C(N[C@H](Cc1ccc(-c2cc(Cl)ccc2F)cc1)C[C@@H](CN1CC(CO)C1)C(=O)O)c1cnn[nH]1 [Example 93b, (2S,4S)-5-(5′-Chloro-2′-fluorobiphenyl-4-yl)-2-(3-hydroxymethyl-azetidin-1-ylmethyl)-4-[(3H-[1,2,3]triazole-4-carbonyl)amino]pentanoic Acid] | – | ≤ 1 nM
23 | CC1(O)CN(C[C@H](C[C@@H](Cc2ccc(-c3cc(Cl)ccc3F)cc2)NC(=O)c2c[nH]nn2)C(=O)O)C1 [Example 101b, (2S,4S)-5-(5′-Chloro-2′-fluorobiphenyl-4-yl)-2-(3-hydroxy-3-methylazetidin-1-ylmethyl)-4-[(1H-[1,2,3]triazole-4-carbonyl)amino]pentanoic Acid] | – | ≤ 1 nM
24 | O=C(N[C@H](Cc1ccc(-c2cc(Cl)ccc2F)cc1)C[C@@H](CNCCO)C(=O)O)c1cnn[nH]1 (single isomer, unassigned) [Example 48a] | – | ≤ 1 nM
25 | O=C(N[C@H](Cc1ccc(-c2cc(Cl)ccc2F)cc1)C[C@@H](CN1CC(CCO)C1)C(=O)O)c1c[nH]nn1 [Example 105, (2S,4S)-5-(5′-Chloro-2′-fluorobiphenyl-4-yl)-2-[3-(2-hydroxyethyl)azetidin-1-ylmethyl]-4-[(1H-[1,2,3]triazole-4-carbonyl)amino]pentanoic Acid] | – | ≤ 1 nM
26 | CC(C)c1coc(C(=O)N[C@H](Cc2ccc(-c3cc(Cl)ccc3F)cc2)C[C@@H](NC(=O)C(C)(C)N)C(=O)O)n1 [Example 35, (2R,4R)-2-(2-Amino-2-methylpropionylamino)-5-(5′-chloro-2′-fluorobiphenyl-4-yl)-4-[(4-isopropyloxazole-2-carbonyl)amino]pentanoic Acid] | – | 3.16 to 10 nM
27 | N#CC1CN(C[C@H](C[C@@H](Cc2ccc(-c3cc(Cl)ccc3F)cc2)NC(=O)c2cnn[nH]2)C(=O)O)C1 [Example 88b, (2S,4S)-5-(5′-Chloro-2′-fluorobiphenyl-4-yl)-2-(3-cyanoazetidin-1-ylmethyl)-4-[(3H-[1,2,3]triazole-4-carbonyl)amino]pentanoic Acid] | – | ≤ 1 nM
28 | CCCc1nc(C(=O)N[C@H](Cc2ccc(-c3cc(Cl)ccc3F)cc2Cl)C[C@@H](N)C(=O)O)co1 [Example 18-2, (2R,4R)-2-Amino-5-(3,5′-dichloro-2′-fluorobiphenyl-4-yl)-4-[(2-propyloxazole-4-carbonyl)amino]pentanoic acid] | ≧9.0 | –
29 | COc1cnc(C(=O)N[C@H](Cc2ccc(-c3cc(Cl)ccc3F)cc2Cl)C[C@@H](N)C(=O)O)o1 [Example 18-11, (2R,4R)-2-Amino-5-(3,5′-dichloro-2′-fluoro-biphenyl-4-yl)-4-[(5-methoxyoxazole-2-carbonyl)amino]pentanoic acid] | ≧9.0 | –
30 | Cc1cc(C(=O)NC(Cc2ccc(-c3cc(Cl)ccc3F)cc2)C[C@@H](CC#N)C(=O)O)sn1 (single isomer, unassigned) [Example 52-2] | – | 3.16 to 10 nM
